Results taken from US20260258084A1, “New Peptides as Selective IL-23 Receptor Antagonists” (Sanofi, priority 2022, published 2026).
Converted amounts (≈) assume the structure as drawn. Read-outs that look alike come from different tables or passages of the source. Values belong to the compound of their own block, whether it stands above or below them. Starred links: 1 amine or outer side, 2 acyl side, 3 side chain; linkers in the order of their positions; H or OH if unused. Positions of bridges follow the written chain, without caps; N, C: chain ends. Non-standard residues stand in square brackets, D forms with d. Residues, ends and D or L forms follow the SMILES beside them. *: point of attachment. X6 = O=C(CCC(=O)[*:3])N[C@@H](CS[*:2])C(=O)[*:1]; X7 = O=C(CCC(=O)[*:3])N[C@@H](CC[*:2])C(=O)[*:1]; Trp(7-Me) = Cc1cccc2c(C[C@H](N)C(=O)O)c[nH]c12; αMeLys(Me2) = CN(C)CCCC[C@](C)(N)C(=O)O; 2Nal = N[C@@H](Cc1ccc2ccccc2c1)C(=O)O; d2Nal = N[C@H](Cc1ccc2ccccc2c1)C(=O)O; NMe5Ava = CN(CCCCC(=O)[*:2])[*:1]; Palmitoyl = CCCCCCCCCCCCCCCC(=O)*; 3Pal = N[C@@H](Cc1cccnc1)C(=O)O; αMeL = CC(C)C[C@](C)(N)C(=O)O; Pen = CC(C)(S)[C@H](N)C(=O)O; Suc = O=C(CCC(=O)[*:2])[*:1]; αMeK = C[C@](N)(CCCCN)C(=O)O; Thp = NC1(C(=O)O)CCOCC1; Me2NCH2CH2 = CN(C)CC*; Aib = CC(C)(N)C(=O)O; Ahx = NCCCCCC(=O)O; Ava = NCCCCC(=O)O; Sar = CNCC(=O)O

Experiments:
[1] = target: T1, human interleukin-23 receptor (recombinant human IL-23R-Fc chimera) (Homo sapiens, UniProt Q5VWK5); assay: Human ELISA IL23/IL23R (assay for specific human IL23R antagonists); format: binding
T1 construct: Fc (IgG Fc fusion)
Protocol: Antagonism of compounds for human interleukin-23 receptor antagonists, was determined by an ELISA assay.
A 384-well plate was coated with 50 μl/well of human IL23 at a final concentration of […] and incubated overnight at 4° C. The wells were washed 3 times with 80 μl wash buffer and blocked with 80 μl blocking buffer for 60 minutes at room temperature and washed again. 20 μl of serially diluted test peptides was added to each well and subsequently 20 μl of recombinant human IL-23R-Fc chimera at final concentration of 0.1 μg/ml. The plate was incubated for 60 minutes at room temperature. After the wells were washed, bound IL23R-Fc was detected with goat anti-hu-IgG1-HRP antibody. Signals were visualized with QuantaBlu Fluorogenic Peroxidase Substrate.

[2] = tested on: IL-23 induced STAT3 signaling in HEK-Blue™ IL-23 cells; assay: IL-23 induced STAT3 signaling in HEK-Blue IL-23 cells (SEAP reporter); format: cell-based; conditions: human IL23 0.25 ng/ml, read-out: pSTAT3
Description: HEK-Blue™ IL-23 cells (Invivogen) are designed for the detection of bioactive human (hIL-23) and murine IL-23 (mIL-23) by monitoring the activation of the STAT3 pathway. Binding of IL-23 to its receptor on the surface of HEK-Blue™ IL-23 cells triggers a signalling cascade leading to the activation of STAT3 and the subsequent production of secreted embryonic alkaline phosphatase (SEAP). This can be readily assessed using QUANTI-Blue™ Solution, a SEAP detection reagent.
HEK-Blue™ IL-23 cells were cultured as described by Invivogen.
On the first day of assay 10 μL of the HEK-Blue IL23 cell suspension (final concentration: 10,000 cells/well) and 10 μl of serially diluted peptides solutions were dispensed into a 384-well assay plate. After pre-incubation of the reaction mixtures at 37° C./5% CO2/95% humidity for 60 minutes, 10 μl of the human IL23 cytokine (final concentration: 0.25 ng/ml) was added to each well for the STAT3 signalling activation. The plate was incubated overnight at 37° C./5% CO2/95% humidity.
On the second day 20 μl per well of Quanti-Blue detection solution (prepared according to the manufacture instruction) was dispensed into a new 384-well plate and followed by the transfer of 5 μl supernatant of the overnight incubated cell/sample mixtures. After incubation of 45 min at room temperature signals were measured with PHERAstar (BMG) at OD 620-655 nm. Dose response data were fitted with XLfit.

[3] = Solubility testing of peptides at different pH; format: physicochemical; conditions: target concentration 1 mg/ml, 2 hours agitation
Protocol: Prior to the solubility measurement of a synthesized peptide batch, its purity was determined through UPLC/MS (methods B-G).
For solubility testing the target concentration was 1 mg pure compound/ml. Therefore, solutions from solid samples were prepared in a buffer system at a concentration of 1 mg/mL compound. The solid samples were obtained by drying down aliquots of a dimethyl sulfoxide stock solution using a Thermo Speedvac vacuum centrifuge. The dry down time was 3 hours. • Solubility buffer system A) 50 mM HCl pH 1.2 • Solubility buffer system B) 50 mM phosphate buffer pH 6.5 • Solubility buffer system C) 50 mM phosphate buffer pH 7.4 • Solubility buffer system D) 50 mM phosphate buffer pH 9.0
UPLC-UV (Method A) was performed after 2 hours of gentle agitation from the filtered (0.45 μm filter plates) solutions, which was obtained by 10 mins of centrifugation forced filtration at 1500 RCF (relative centrifugal acceleration).
The solubility was determined by the comparison of the UV peak area of 2 μL-injections of a buffered sample diluted 1:5 with a standard curve of a dimethyl sulfoxide reference sample of the diluted in dimethyl sulfoxide with known concentration. The different extinction coefficients were taken into account for the calculation.

[4] = Chemical stability assessment of peptides (relative purity loss); format: physicochemical; conditions: 24 hours at 37° C.
Protocol: Purity of a peptide batch was determined through UPLC/MS (Methods B-G) prior to chemical stability measurement. The target concentration was 1 mg/ml pure compound. Solutions from solid samples were prepared in the following buffer systems with a concentration of 1 mg/ml compound based on the previously determined % purity: • Solubility buffer system A) 50 mM HCl pH 1.2+Acetonitrile (1:1) • Solubility buffer system B) 50 mM phosphate buffer pH 6.5+Acetonitrile (1:1) • Solubility buffer system C) 50 mM phosphate buffer pH 7.4+Acetonitrile (1:1)
Prepared solutions were stored for 24 hours at 2° C. and 37° C. After this time course, the samples were centrifuged for 15 min at 2500 RCF to create a 1:5 dilution of the supernatant. Then 2 μl of the dilution were analysed with UHPLC-UV.
The chemical stability was rated through the relative loss of purity calculated by the equation:
[(purity after 0 hours at 37° C.)−(purity after 24 hours at 37° C.)]/(purity after 0 hours at 37° C.)]*100%
The purity is calculated as [(peak area peptide)/(total peak area)]*100%.

[5] = Table 11, Pen peptide compounds, read-out: Elisa IC50 Pen
[6] = Table 10, read-out: Human ELISA IL23/IL23R IC50

Structure (SMILES): CC(C)C[C@]1(C)NC(=O)[C@H](Cc2ccc3ccccc3c2)NC(=O)[C@H](Cc2ccc(OCCN(C)C)cc2)NC(=O)[C@@H]2CSSC[C@H](NC(=O)CCCCN(C)C(=O)CC[C@@H](C(=O)N[C@@H](CC(N)=O)C(=O)N[C@@H](CC(N)=O)C(N)=O)NC1=O)C(=O)N[C@@H](CC(N)=O)C(=O)N[C@@H]([C@@H](C)O)C(=O)N[C@@H](Cc1c[nH]c3ccccc13)C(=O)N[C@@H](CCC(N)=O)C(=O)N2 [compound 42] ([NMe5Ava]CNTWQCY(Me2NCH2CH2)[2Nal][αMeL]ENN-NH2; disulfide 2-7; lactam N-11)
IC50 [1, 6]: 0.32 nM | IC50 [2]: 1.42 nM

Structure (SMILES): CCCCCCCCCCCCCCCC(=O)NCCCC[C@]1(C)NC(=O)[C@H](Cc2ccc3ccccc3c2)NC(=O)[C@H](Cc2ccc(OCCN(C)C)cc2)NC(=O)[C@@H]2CSSC[C@H](NC(=O)CCC(=O)NCCCC[C@@H](C(=O)N[C@@H](CC(N)=O)C(=O)N[C@@H](Cc3cccnc3)C(=O)N(C)CC(N)=O)NC1=O)C(=O)NCCCC[C@H](NC(C)=O)C(=O)N[C@@H](Cc1c[nH]c3c(C)cccc13)C(=O)N[C@@H](CCCCNC(C)=O)C(=O)N2 [compound 101] (Ac-K[Trp(7-Me)]K(Ac)CY(Me2NCH2CH2)[2Nal][αMeK](Palmitoyl)KN[3Pal][Sar]-NH2; linker 1-4-8 via X6)
IC50 [1, 6]: 3.47 nM | solubility at 2 h ([3]; 50 mM HCl buffer, 50 mM HCl pH 1.2, read-out: Solubility Buffer pH 1.2): ≥ 1430 µg/mL | solubility at 2 h ([3]; 50 mM phosphate buffer pH 6.5, read-out: Solubility Buffer pH 6.5): 750 µg/mL (≈ 354 µM) | solubility at 2 h ([3]; 50 mM phosphate buffer pH 7.4, read-out: Solubility Buffer pH 7.4): ≥ 870 µg/mL | solubility at 2 h ([3]; 50 mM phosphate buffer pH 9.0, read-out: Solubility Buffer pH 9.0): 810 µg/mL (≈ 382 µM) | Chemical stability (relative purity loss) Buffer pH 1.2 ([4]; 50 mM HCl pH 1.2 + acetonitrile (1:1)): 12.0% | Chemical stability (relative purity loss) Buffer pH 6.5 ([4]; 50 mM phosphate buffer pH 6.5 + acetonitrile (1:1)): 10.0% | Chemical stability (relative purity loss) Buffer pH 7.4 ([4]; 50 mM phosphate buffer pH 7.4 + acetonitrile (1:1)): 9.0%

Structure (SMILES): Cc1cccc2c(C[C@@H]3NC(=O)[C@H]([C@@H](C)O)NC(=O)[C@H](CC(N)=O)NC(=O)[C@@H]4CSSC[C@H](NC(=O)[C@H](CCC(N)=O)NC3=O)C(=O)N[C@@H](Cc3ccc(OCCN(C)C)cc3)C(=O)N[C@@H](Cc3ccc5ccccc5c3)C(=O)N[C@@](C)(CCCCN(C)C)C(=O)N[C@H](C(=O)N[C@@H](CC(N)=O)C(=O)N[C@@H](Cc3cccnc3)C(=O)N(C)CC(N)=O)CCCCNC(=O)CCC(=O)N4)c[nH]c12 [compound 153] (CNT[Trp(7-Me)]QCY(Me2NCH2CH2)[2Nal][αMeLys(Me2)]KN[3Pal][Sar]-NH2; disulfide 1-6; linker N-10 via Suc)
IC50 [1, 6]: 0.45 nM | IC50 [2]: 0.06 nM

Structure (SMILES): COc1ccc(C[C@@H]2NC(=O)[C@@H]3CSSC(C)(C)[C@H](NC(=O)CCCCCNC(=O)C[C@@H](C(=O)N[C@@H](CC(N)=O)C(=O)N[C@@H](CC(N)=O)C(N)=O)NC(=O)C(C)(C)NC(=O)[C@H](Cc4ccc5ccccc5c4)NC2=O)C(=O)N[C@@H](CC(N)=O)C(=O)N[C@@H]([C@@H](C)O)C(=O)N[C@@H](Cc2c[nH]c4ccccc24)C(=O)N[C@@H](CCC(N)=O)C(=O)N3)cc1 [compound 164] ([Ahx][Pen]NTWQCY(Me)[2Nal][Aib]DNN-NH2; disulfide 2-7; lactam N-11)
IC50 [1, 5]: 23.1 nM

Structure (SMILES): CC(=O)NCCCC[C@@H]1NC(=O)[C@H](Cc2c[nH]c3c(C)cccc23)NC(=O)[C@@H](NC(C)=O)CCCCNC(=O)[C@@H]2CCSC[C@H](NC1=O)C(=O)N[C@@H](Cc1ccc(OCCN(C)C)cc1)C(=O)N[C@H](Cc1ccc3ccccc3c1)C(=O)NC1(CCOCC1)C(=O)N[C@H](C(=O)N[C@@H](CC(N)=O)C(=O)N[C@@H](Cc1cccnc1)C(=O)N(C)CC(N)=O)CCCCNC(=O)CCC(=O)N2 [compound 122] (Ac-K[Trp(7-Me)]K(Ac)CY(Me2NCH2CH2)[d2Nal][Thp]KN[3Pal][Sar]-NH2; linker 1-4-8 via X7)
IC50 [1, 6]: 2.3 nM | IC50 [2]: 0.37 nM

Structure (SMILES): COc1ccc(C[C@@H]2NC(=O)[C@H]3NC(=O)[C@H](CCC(N)=O)NC(=O)[C@H](Cc4c[nH]c5ccccc45)NC(=O)[C@H]([C@@H](C)O)NC(=O)[C@H](CC(N)=O)NC(=O)[C@@H](NC(=O)CCCCCNC(=O)CC[C@@H](C(=O)N[C@@H](CC(N)=O)C(=O)NCC(N)=O)NC(=O)C4(CCOCC4)NC(=O)[C@H](Cc4ccc5ccccc5c4)NC2=O)C(C)(C)SSC3(C)C)cc1 [compound 161] ([Ahx][Pen]NTWQ[Pen]Y(Me)[2Nal][Thp]ENG-NH2; disulfide 2-7 (inferred); lactam N-11 (inferred))
IC50 [1, 5]: 76.6 nM

The remaining lines, values ahead:

IC50 [1, 5]: 33.5 nM
Structure (SMILES): COc1ccc(C[C@@H]2NC(=O)[C@H]3NC(=O)[C@H](CCC(N)=O)NC(=O)[C@H](Cc4c[nH]c5ccccc45)NC(=O)[C@H]([C@@H](C)O)NC(=O)[C@H](CC(N)=O)NC(=O)[C@@H](NC(=O)CCCCCNC(=O)C[C@@H](C(=O)N[C@@H](CC(N)=O)C(=O)N[C@@H](CC(N)=O)C(N)=O)NC(=O)[C@](C)(CC(C)C)NC(=O)[C@H](Cc4ccc5ccccc5c4)NC2=O)C(C)(C)SSC3(C)C)cc1 [compound 162] ([Ahx][Pen]NTWQ[Pen]Y(Me)[2Nal][αMeL]DNN-NH2; disulfide 2-7; lactam N-11)

IC50 [1, 5]: 72.2 nM
Structure (SMILES): COc1ccc(C[C@@H]2NC(=O)[C@H]3NC(=O)[C@H](CCC(N)=O)NC(=O)[C@H](Cc4c[nH]c5ccccc45)NC(=O)[C@H]([C@@H](C)O)NC(=O)[C@H](CC(N)=O)NC(=O)[C@@H](NC(=O)CCCCCNC(=O)CC[C@@H](C(=O)N[C@@H](CC(N)=O)C(=O)N[C@@H](CC(N)=O)C(N)=O)NC(=O)C(C)(C)NC(=O)[C@H](Cc4ccc5ccccc5c4)NC2=O)C(C)(C)SSC3(C)C)cc1 [compound 160] ([Ahx][Pen]NTWQ[Pen]Y(Me)[2Nal][Aib]ENN-NH2; disulfide 2-7; lactam N-11)

IC50 [1, 5]: 280 nM
Structure (SMILES): COc1ccc(C[C@@H]2NC(=O)[C@H]3NC(=O)[C@H](CCC(N)=O)NC(=O)[C@H](Cc4c[nH]c5ccccc45)NC(=O)[C@H]([C@@H](C)O)NC(=O)[C@H](CC(N)=O)NC(=O)[C@@H](NC(=O)CCCCNC(=O)CC[C@@H](C(=O)N[C@@H](CC(N)=O)C(=O)N[C@@H](CC(N)=O)C(N)=O)NC(=O)C(C)(C)NC(=O)[C@H](Cc4ccc5ccccc5c4)NC2=O)C(C)(C)SSC3(C)C)cc1 [compound 159] ([Ava][Pen]NTWQ[Pen]Y(Me)[2Nal][Aib]ENN-NH2; disulfide 2-7; lactam N-11)
